Read-outs that look alike come from different tables or passages of the source.
Columns and labels:
Format in all cases: cell-based
[1] = test system: SKBr3 (estrogen receptor negative, Her2 over-expressing breast cancer cells); experiment: Anti-proliferation assay (MTS/PMS, 72 h), SKBr3; conditions: Breast Cancer, read-out: IC50 SKBr3
Description: (§1) Cells were maintained in a 1:1 mixture of Advanced DMEM/F12 (Gibco) supplemented with non-essential amino acids, L-glutamine (2 mM), streptomycin (500 μg/mL), penicillin (100 units/mL), and 10% FBS. Cells were grown to confluence in a humidified atmosphere (37° C., 5% CO2), seeded (2000/well, 100 μL) in 96-well plates, and allowed to attach overnight. Compound at varying concentrations in DMSO (1% DMSO final concentration) was added, and cells were returned to the incubator for 72 h. At 72 h, the number of viable cells was determined using an MTS/PMS cell proliferation kit (Promega) per the manufacturer's instructions. Cells incubated in 1% DMSO were used at 100% proliferation, and values were adjusted accordingly. IC50 values were calculated from separate experiments performed in triplicate using GraphPad Prism.
(§2) The anti-proliferative activity of these compounds is evaluated against two breast cancer cell lines, SKBr3 (estrogen receptor negative, Her2 over-expressing breast cancer cells) and MCF-7 (estrogen receptor positive breast cancer cells).

DRO81-1 = experiment: Anti-proliferation assay, DRO81-1; conditions: Thyroid
Description: as §1

HMLE = experiment: Anti-proliferation assay, HMLE (normal); conditions: Table 6, substituted phenyl ureas
Description: as §1

MRC5 = experiment: Anti-proliferation assay, MRC5 (normal)
Description: as §1

[2] = test system: MCF-7 (estrogen receptor positive breast cancer cells); experiment: Anti-proliferation assay (MTS/PMS, 72 h), MCF-7; conditions: Breast Cancer, read-out: IC50 MCF-3
Description: as §1, §2

HCT-116 = experiment: Anti-proliferation assay, HCT-116
Description: as §1

MDA1986 = experiment: Anti-proliferation assay, MDA1986; conditions: HSNCC
Description: as §1

A-549 = experiment: Anti-proliferation assay, A-549
Description: as §1

JMAR = experiment: Anti-proliferation assay, JMAR; conditions: HSNCC
Description: as §1

MDAMB231 = experiment: Anti-proliferation assay, MDAMB231; conditions: Tri-Neg
Description: as §1

PC-3 = experiment: Anti-proliferation assay, PC-3; conditions: Prostate Cancer
Description: as §1

[3] = Homo sapiens, SK-BR-3, Table 6, substituted phenyl ureas
[4] = Table 6, substituted phenyl ureas
[5] = Homo sapiens, MRC5, Table 6, substituted phenyl ureas
[6] = Homo sapiens, MCF7, Table 6, substituted phenyl ureas
[7] = Homo sapiens, HCT-116, Table 6, substituted phenyl ureas
[8] = MDA1986, Table 6, substituted phenyl ureas
[9] = Homo sapiens, A549, Table 6, substituted phenyl ureas
[10] = JMAR, Table 6, substituted phenyl ureas
[11] = Homo sapiens, MDA-MB-231, Table 6, substituted phenyl ureas
[12] = Homo sapiens, PC-3, Table 6, substituted phenyl ureas

Row | SMILES | IC50 [1, 3] [µM] | IC50 (DRO81-1; [4]) [µM] | IC50 (HMLE; HMLE) [µM] | IC50 (MRC5; [5]) [µM] | IC50 [2, 6] [µM] | IC50 (HCT-116; [7]) [µM] | IC50 (MDA1986; [8]) [µM] | IC50 (A-549; [9]) [µM] | IC50 (JMAR; [10]) [µM] | IC50 (MDAMB231; [11]) [µM] | IC50 (PC-3; [12]) [µM] | also measured
1 | Cc1ccc(NC(=O)Nc2cc3ccc(OC4CCN(C)CC4)c(C)c3oc2=O)c(C)c1 [2,4-dimethyl, 1-(2,4-dimethylphenyl)-3-(8-methyl-7-((1-methylpiperidin-4-yl)oxy)-2-oxo-2H-chromen-3-yl)urea] | 3.79 | 2.3 | > 25 | 3.6 | 1.11 | 0.77 | 1.9 | 0.43 | 1.1 | 2.6 | 0.27 | –
2 | Cc1c(OC2CCN(C)CC2)ccc2cc(NC(=O)Nc3ccc(Cl)c(Cl)c3)c(=O)oc12 [3,4-dichloro, 1-(3,4-dichlorophenyl)-3-(8-methyl-7-((1-methylpiperidin-4-yl)oxy)-2-oxo-2H-chromen-3-yl)urea] | 0.64 | 13.2 | 1.5 | 2.1 | 1.78 | 17 | 2.6 | 1.82 | 6.7 | 2.9 | 2.04 | –
3 | Cc1ccc(NC(=O)Nc2cc3ccc(OC4CCN(C)CC4)c(C)c3oc2=O)cc1C [3,4-dimethyl, 1-(3,4-dimethylphenyl)-3-(8-methyl-7-((1-methylpiperidin-4-yl)oxy)-2-oxo-2H-chromen-3-yl)urea] | 0.31 | 8.1 | 0.9 | 2.7 | 0.33 | 0.066 | 1.3 | 0.063 | 1.7 | 1.9 | 1.33 | –
4 | Cc1c(OC2CCN(C)CC2)ccc2cc(NC(=O)Nc3cc(Cl)cc(Cl)c3)c(=O)oc12 [3,5-dichloro, 1-(3,5-dichlorophenyl)-3-(8-methyl-7-((1-methylpiperidin-4-yl)oxy)-2-oxo-2H-chromen-3-yl)urea] | 0.51 | 0.77 | > 25 | > 25 | 0.49 | 1.21 | 7.5 | 0.2 | 6.2 | 3.6 | 0.16 | –
5 | Cc1cc(C)cc(NC(=O)Nc2cc3ccc(OC4CCN(C)CC4)c(C)c3oc2=O)c1 [3,5-dimethyl, 1-(3,5-dimethylphenyl)-3-(8-methyl-7-((1-methylpiperidin-4-yl)oxy)-2-oxo-2H-chromen-3-yl)urea] | 0.3 | 8.4 | 13.8 | 5.9 | 0.34 | 0.17 | 0.09 | 0.052 | 3.4 | 0.65 | 1.35 | –
6 | COc1ccc(C(C)(C)C)cc1NC(=O)Nc1cc2ccc(OC3CCN(C)CC3)c(C)c2oc1=O [Compound 2-OMe-5-t-Bu, 1-(5-(tert-butyl)-2-methoxyphenyl)-3-(8-methyl-7-((1-methylpiperidin-4-yl)oxy)-2-oxo-2H-chromen-3-yl)urea] | 3.87 | 6.1 | 6.1 | 2.65 | 1.53 | 1.24 | 0.09 | 0.84 | 3.8 | 0.91 | 3.82 | –
7 | Cc1c(OC2CCN(C)CC2)ccc2cc(NC(=O)NC3CCCC3)c(=O)oc12 [drawing 154] | – | – | – | – | – | – | – | – | – | – | – | IC50 ([1]; Table 9, non-aryl ureas): 2.39 ± 0.35 µM; IC50 (DRO81-1; Table 9, non-aryl ureas): 8.8 µM; IC50 ([2]; Table 9, non-aryl ureas): 3.83 ± 0.33 µM; IC50 (HCT-116; Table 9, non-aryl ureas): 7.87 ± 7.97 µM; IC50 (MDA1986; Table 9, non-aryl ureas): > 25 µM; IC50 (A-549; Table 9, non-aryl ureas): 1.24 ± 0.94 µM; IC50 (JMAR; Table 9, non-aryl ureas): > 25 µM; IC50 (MDAMB231; Table 9, non-aryl ureas): 0.65 µM; IC50 (PC-3; Table 9, non-aryl ureas): 2.16 ± 1.17 µM
8 | Cc1c(OC2CCN(C)CC2)ccc2cc(NC(=O)NC3CCCCC3)c(=O)oc12 [drawing 155] | – | – | – | – | – | – | – | – | – | – | – | IC50 ([1]; Table 9, non-aryl ureas): 3.83 ± 0.33 µM; IC50 (DRO81-1; Table 9, non-aryl ureas): > 25 µM; IC50 ([2]; Table 9, non-aryl ureas): 3.84 ± 0.31 µM; IC50 (HCT-116; Table 9, non-aryl ureas): 9.21 ± 6.54 µM; IC50 (MDA1986; Table 9, non-aryl ureas): > 25 µM; IC50 (A-549; Table 9, non-aryl ureas): > 100 µM; IC50 (JMAR; Table 9, non-aryl ureas): > 25 µM; IC50 (MDAMB231; Table 9, non-aryl ureas): > 25 µM; IC50 (PC-3; Table 9, non-aryl ureas): 1.67 µM
9 | Cc1c(OC2CCN(C)CC2)ccc2cc(NC(=O)Nc3cccc(Cl)c3)c(=O)oc12 [m-Cl, 1-(3-chlorophenyl)-3-(8-methyl-7-((1-methylpiperidin-4-yl)oxy)-2-oxo-2H-chromen-3-yl)urea] | 0.3 | 3.8 | 22 | 3.1 | 0.52 | 0.22 | 1.7 | 0.063 | 1.7 | 0.57 | 1.82 | –
10 | Cc1c(OC2CCN(C)CC2)ccc2cc(NC(=O)Nc3ccc(Br)cc3)c(=O)oc12 [p-Br, 1-(4-bromophenyl)-3-(8-methyl-7-((1-methylpiperidin-4-yl)oxy)-2-oxo-2H-chromen-3-yl)urea] | 0.65 | 3.5 | 6 | 5.5 | 1.04 | 0.24 | 3.5 | 0.11 | 3.6 | 2.6 | 0.18 | –
11 | Cc1c(OC2CCN(C)CC2)ccc2cc(NC(=O)Nc3ccc(C(C)(C)C)cc3)c(=O)oc12 [p-C(CH3)3, 1-(4-(tert-butyl)phenyl)-3-(8-methyl-7-((1-methylpiperidin-4-yl)oxy)-2-oxo-2H-chromen-3-yl)urea] | 0.93 | 0.71 | 14.5 | 1.8 | 0.96 | 0.21 | 0.57 | 0.092 | 0.49 | 0.5 | 0.14 | –
12 | Cc1c(OC2CCN(C)CC2)ccc2cc(NC(=O)Nc3ccc(C(F)(F)F)cc3)c(=O)oc12 [p-CF3, 1-(8-methyl-7-((1-methylpiperidin-4-yl)oxy)-2-oxo-2H-chromen-3-yl)-3-(4-(trifluoromethyl)phenyl)urea] | 0.35 | 0.64 | 15.5 | 3.1 | 0.47 | 0.8 | 0.9 | 0.13 | 3.6 | 0.43 | 0.06 | –
13 | Cc1ccc(NC(=O)Nc2cc3ccc(OC4CCN(C)CC4)c(C)c3oc2=O)cc1 [p-CH3, 1-(8-methyl-7-((1-methylpiperidin-4-yl)oxy)-2-oxo-2H-chromen-3-yl)-3-(p-tolyl)urea] | 0.27 | 16.3 | 3.3 | 6.6 | 0.29 | 0.059 | 3.2 | 0.017 | 3.5 | 0.91 | 0.81 | –
14 | Cc1c(OC2CCN(C)CC2)ccc2cc(NC(=O)Nc3ccc(C(C)C)cc3)c(=O)oc12 [p-CH(CH3)2, 1-(4-isopropylphenyl)-3-(8-methyl-7-((1-methylpiperidin-4-yl)oxy)-2-oxo-2H-chromen-3-yl)urea] | 0.67 | 0.3 | 6.4 | 1.9 | 0.82 | 1.06 | 1.11 | 0.16 | 0.88 | 0.61 | 0.13 | –
15 | Cc1c(OC2CCN(C)CC2)ccc2cc(NC(=O)Nc3ccc(C#N)cc3)c(=O)oc12 [p-CN, 1-(4-cyanophenyl)-3-(8-methyl-7-((1-methylpiperidin-4-yl)oxy)-2-oxo-2H-chromen-3-yl)urea] | 0.37 | 0.28 | 4 | 5.7 | 0.43 | 0.57 | 1.62 | 0.043 | 3.7 | 0.44 | 0.048 | –
16 | CC(=O)c1ccc(NC(=O)Nc2cc3ccc(OC4CCN(C)CC4)c(C)c3oc2=O)cc1 [p-COCH3] | – | 13.3 | – | – | – | – | – | – | – | – | – | IC50 [1, 4]: 1.52 µM; IC50 (HMLE): 8 µM; IC50 (MRC5; [4]): 7.7 µM; IC50 [2, 4]: 1.72 µM; IC50 (HCT-116; [4]): 0.25 µM; IC50 (MDA1986; [4]): 3.4 µM; IC50 (A-549; [4]): 0.24 µM; IC50 (JMAR; [4]): 11.9 µM; IC50 (MDAMB231; [4]): 0.75 µM; IC50 (PC-3; [4]): 2.75 µM
